Source: PubChem BioAssay (NCI)
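Growth conditions: 96-well plates. Treatment: test compound, 48 hours, 5 concentrations. Analysis: linear interpolation between bracketing concentrations; unreached endpoints set to highest concentration. GI50 marks 50% less growth. TGI: total growth inhibition.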

Assays:
Experiment in all cases: NCI tumour cell line growth inhibition, 48 h
ACHN renal = test system: ACHN renal
CAKI-1 renal = test system: CAKI-1 renal
HCC-2998 colon = test system: HCC-2998 colon
HOP-62 NSCLC = test system: HOP-62 NSCLC
IGROV1 ovarian = test system: IGROV1 ovarian
NCI-H226 lung = test system: NCI-H226 lung
PC-3 prostate = test system: PC-3 prostate
SF-295 CNS = test system: SF-295 CNS
SF-539 CNS = test system: SF-539 CNS
SK-MEL-28 melanoma = test system: SK-MEL-28 melanoma
SK-OV-3 ovarian = test system: SK-OV-3 ovarian
UACC-62 melanoma = test system: UACC-62 melanoma

CN(C)c1ccc(/C=C2\N=C(NN)NC2=O)cc1
TGI (ACHN renal): > 100 µM
TGI (CAKI-1 renal): > 100 µM
TGI (HCC-2998 colon): > 100 µM
TGI (HOP-62 NSCLC): > 100 µM
TGI (IGROV1 ovarian): > 100 µM
TGI (NCI-H226 lung): > 100 µM
TGI (PC-3 prostate): > 100 µM
TGI (SF-295 CNS): > 100 µM
TGI (SF-539 CNS): 96.6 µM
TGI (SK-MEL-28 melanoma): > 100 µM
TGI (SK-OV-3 ovarian): > 100 µM
TGI (UACC-62 melanoma): > 100 µM

COc1ccc(O[C@H](COCc2ccccc2)C[C@@H]2COC(C)(C)O2)cc1
TGI (ACHN renal): > 100 µM
TGI (CAKI-1 renal): > 100 µM
TGI (HCC-2998 colon): > 100 µM
TGI (HOP-62 NSCLC): > 100 µM
TGI (IGROV1 ovarian): > 100 µM
TGI (NCI-H226 lung): > 100 µM
TGI (PC-3 prostate): > 100 µM
TGI (SF-295 CNS): > 100 µM
TGI (SF-539 CNS): > 100 µM
TGI (SK-MEL-28 melanoma): > 100 µM
TGI (SK-OV-3 ovarian): > 100 µM
TGI (UACC-62 melanoma): > 100 µM

Cc1ccc(OCC2OC(n3cnc4nc(Cl)nc(Cl)c43)CC2Oc2ccc(C)cc2)cc1 (stereo not given)
TGI (ACHN renal): 7.9 µM
TGI (CAKI-1 renal): 9.75 µM
TGI (HCC-2998 colon): 12.2 µM
TGI (HOP-62 NSCLC): 34.8 µM
TGI (IGROV1 ovarian): 19.7 µM
TGI (NCI-H226 lung): 36.3 µM
TGI (PC-3 prostate): 24.5 µM
TGI (SF-295 CNS): 30.6 µM
TGI (SF-539 CNS): 13.9 µM
TGI (SK-MEL-28 melanoma): 14.1 µM
TGI (SK-OV-3 ovarian): > 89.5 µM
TGI (UACC-62 melanoma): 20.5 µM

CCOC(=O)c1c(Br)c(-c2ccc(Br)cc2)c(Br)n1C
TGI (ACHN renal): 84.7 µM
TGI (CAKI-1 renal): 75.2 µM
TGI (HCC-2998 colon): 42.1 µM
TGI (HOP-62 NSCLC): 53.1 µM
TGI (IGROV1 ovarian): > 100 µM
TGI (NCI-H226 lung): 49.4 µM
TGI (PC-3 prostate): 71.1 µM
TGI (SF-295 CNS): 45.6 µM
TGI (SF-539 CNS): 73.2 µM
TGI (SK-MEL-28 melanoma): 51.8 µM
TGI (SK-OV-3 ovarian): > 100 µM
GI50 (UACC-62 melanoma): 23.6 µM
TGI (UACC-62 melanoma): > 100 µM

O=C(Nc1nc2c(=O)[nH]cnc2s1)c1ccccc1
TGI (ACHN renal): > 100 µM
TGI (CAKI-1 renal): > 100 µM
TGI (HCC-2998 colon): > 100 µM
TGI (HOP-62 NSCLC): > 100 µM
TGI (IGROV1 ovarian): > 100 µM
TGI (NCI-H226 lung): > 100 µM
TGI (PC-3 prostate): > 100 µM
TGI (SF-295 CNS): > 100 µM
TGI (SF-539 CNS): > 100 µM
TGI (SK-MEL-28 melanoma): > 100 µM
TGI (SK-OV-3 ovarian): > 100 µM
TGI (UACC-62 melanoma): > 100 µM

O=C(Nc1c[nH]c(=O)[nH]c1=O)C(Cl)Cl
TGI (ACHN renal): > 100 µM
TGI (CAKI-1 renal): > 100 µM
TGI (HCC-2998 colon): > 100 µM
TGI (HOP-62 NSCLC): > 100 µM
TGI (IGROV1 ovarian): > 100 µM
TGI (NCI-H226 lung): > 100 µM
TGI (PC-3 prostate): > 100 µM
TGI (SF-295 CNS): > 100 µM
TGI (SF-539 CNS): > 100 µM
TGI (SK-MEL-28 melanoma): > 100 µM
TGI (SK-OV-3 ovarian): > 100 µM
TGI (UACC-62 melanoma): > 100 µM

COC(=O)C(CCc1ccccc1I)C1=CCC2(CC1)OCCO2 (stereo not given)
TGI (ACHN renal): > 100 µM
TGI (CAKI-1 renal): > 100 µM
TGI (HCC-2998 colon): > 100 µM
TGI (HOP-62 NSCLC): > 100 µM
TGI (IGROV1 ovarian): > 100 µM
TGI (NCI-H226 lung): > 100 µM
TGI (PC-3 prostate): > 100 µM
TGI (SF-295 CNS): > 100 µM
TGI (SF-539 CNS): > 100 µM
TGI (SK-MEL-28 melanoma): > 100 µM
TGI (SK-OV-3 ovarian): > 100 µM
TGI (UACC-62 melanoma): > 100 µM

COC1=C(N=[N+]=[N-])C(=O)c2ncccc2C1=O
TGI (ACHN renal): 15 µM
TGI (CAKI-1 renal): 13.3 µM
TGI (HCC-2998 colon): 31 µM
TGI (HOP-62 NSCLC): 29.4 µM
TGI (IGROV1 ovarian): 13.1 µM
TGI (NCI-H226 lung): 35.9 µM
TGI (PC-3 prostate): 29 µM
TGI (SF-295 CNS): 29 µM
TGI (SF-539 CNS): 30.5 µM
TGI (SK-MEL-28 melanoma): 27.4 µM
TGI (SK-OV-3 ovarian): 28.5 µM
TGI (UACC-62 melanoma): 20.8 µM

CNc1ccc(-c2nc3cc(C)ccc3o2)cc1
TGI (ACHN renal): > 100 µM
TGI (CAKI-1 renal): > 100 µM
TGI (HCC-2998 colon): > 100 µM
TGI (HOP-62 NSCLC): > 100 µM
TGI (IGROV1 ovarian): > 100 µM
TGI (NCI-H226 lung): > 100 µM
TGI (PC-3 prostate): > 100 µM
TGI (SF-295 CNS): > 100 µM
TGI (SF-539 CNS): > 100 µM
TGI (SK-MEL-28 melanoma): > 100 µM
TGI (SK-OV-3 ovarian): 61 µM
TGI (UACC-62 melanoma): > 100 µM

O=C1Sc2ccc(Br)cc2C(=O)Sc2ccccc21
TGI (ACHN renal): 32.8 µM
TGI (CAKI-1 renal): 29.4 µM
TGI (HCC-2998 colon): 29.6 µM
TGI (HOP-62 NSCLC): 28.4 µM
TGI (IGROV1 ovarian): 31.6 µM
TGI (NCI-H226 lung): 44.5 µM
TGI (PC-3 prostate): 26.1 µM
TGI (SF-295 CNS): 57.5 µM
TGI (SF-539 CNS): 26.4 µM
TGI (SK-MEL-28 melanoma): 42.7 µM
TGI (SK-OV-3 ovarian): > 62.9 µM
TGI (UACC-62 melanoma): 31.8 µM

COC(=O)C1=C(C)NC2(O)C=CC(=O)C3C(=O)N(c4ccccc4)C(=O)C132 (stereo not given)
TGI (ACHN renal): > 100 µM
TGI (CAKI-1 renal): > 100 µM
TGI (HCC-2998 colon): > 100 µM
TGI (HOP-62 NSCLC): > 100 µM
TGI (IGROV1 ovarian): > 100 µM
TGI (NCI-H226 lung): > 100 µM
TGI (PC-3 prostate): > 100 µM
TGI (SF-295 CNS): > 100 µM
TGI (SF-539 CNS): > 100 µM
TGI (SK-MEL-28 melanoma): 78.7 µM
TGI (SK-OV-3 ovarian): > 100 µM
TGI (UACC-62 melanoma): > 100 µM

CCOc1cc(NC(C)=O)ccc1C(=O)NN1C(=O)C(Oc2ccccc2)C1c1ccccc1 (stereo not given)
TGI (ACHN renal): > 100 µM
TGI (CAKI-1 renal): > 100 µM
TGI (HCC-2998 colon): > 100 µM
TGI (HOP-62 NSCLC): > 100 µM
TGI (IGROV1 ovarian): > 100 µM
TGI (NCI-H226 lung): > 100 µM
TGI (PC-3 prostate): > 100 µM
TGI (SF-295 CNS): > 100 µM
TGI (SF-539 CNS): > 100 µM
TGI (SK-MEL-28 melanoma): > 100 µM
TGI (SK-OV-3 ovarian): > 100 µM
TGI (UACC-62 melanoma): > 100 µM

O=c1[nH]nc(-c2ccccc2)n1/N=C/c1c[nH]c2ccccc12
TGI (ACHN renal): > 100 µM
TGI (CAKI-1 renal): > 100 µM
TGI (HCC-2998 colon): > 100 µM
TGI (HOP-62 NSCLC): > 100 µM
TGI (IGROV1 ovarian): > 100 µM
TGI (NCI-H226 lung): > 100 µM
TGI (PC-3 prostate): > 100 µM
TGI (SF-295 CNS): > 100 µM
TGI (SF-539 CNS): > 100 µM
TGI (SK-MEL-28 melanoma): > 100 µM
TGI (SK-OV-3 ovarian): > 100 µM
TGI (UACC-62 melanoma): > 100 µM

Cc1ccc(N=Nc2c(O)ccc3cc(S(=O)(=O)O)ccc23)c(C)c1
TGI (ACHN renal): > 100 µM
TGI (CAKI-1 renal): > 100 µM
TGI (HCC-2998 colon): > 100 µM
TGI (HOP-62 NSCLC): > 100 µM
TGI (IGROV1 ovarian): > 100 µM
TGI (NCI-H226 lung): > 100 µM
TGI (PC-3 prostate): > 100 µM
TGI (SF-295 CNS): > 100 µM
TGI (SF-539 CNS): > 100 µM
TGI (SK-MEL-28 melanoma): > 100 µM
TGI (SK-OV-3 ovarian): > 100 µM
TGI (UACC-62 melanoma): > 100 µM

CCOC(=O)/C(=C\c1ccc(N(C)C)cc1)S(=O)(=O)C(F)(F)C(F)(F)C(F)(F)C(F)(F)F
TGI (ACHN renal): > 100 µM
TGI (CAKI-1 renal): > 100 µM
TGI (HCC-2998 colon): > 100 µM
TGI (HOP-62 NSCLC): > 100 µM
TGI (IGROV1 ovarian): > 100 µM
TGI (NCI-H226 lung): > 100 µM
TGI (PC-3 prostate): > 100 µM
TGI (SF-295 CNS): > 100 µM
TGI (SF-539 CNS): > 100 µM
TGI (SK-MEL-28 melanoma): > 100 µM
TGI (SK-OV-3 ovarian): > 100 µM
TGI (UACC-62 melanoma): > 100 µM

O=C(N=C1SCCN1C(=O)C(C(F)(F)F)C(F)(F)F)C(C(F)(F)F)C(F)(F)F
TGI (ACHN renal): > 100 µM
TGI (CAKI-1 renal): > 100 µM
TGI (HCC-2998 colon): > 100 µM
TGI (HOP-62 NSCLC): > 100 µM
TGI (IGROV1 ovarian): > 100 µM
TGI (NCI-H226 lung): > 100 µM
TGI (PC-3 prostate): > 100 µM
TGI (SF-295 CNS): > 100 µM
TGI (SF-539 CNS): > 100 µM
TGI (SK-MEL-28 melanoma): > 100 µM
TGI (SK-OV-3 ovarian): > 100 µM

C=CCOCn1cnc2c(N)ncnc21
TGI (ACHN renal): > 100 µM
TGI (CAKI-1 renal): > 100 µM
TGI (HCC-2998 colon): > 100 µM
TGI (HOP-62 NSCLC): > 100 µM
TGI (IGROV1 ovarian): > 100 µM
TGI (NCI-H226 lung): > 100 µM
TGI (PC-3 prostate): > 100 µM
TGI (SF-295 CNS): > 100 µM
TGI (SF-539 CNS): > 100 µM
TGI (SK-MEL-28 melanoma): > 100 µM
TGI (SK-OV-3 ovarian): > 100 µM
TGI (UACC-62 melanoma): > 100 µM

COc1cc(C2SCC(=O)N2c2ccc(-n3c(-c4ccccc4)nc4ccccc4c3=O)cc2)ccc1O (stereo not given)
TGI (ACHN renal): > 100 µM
TGI (CAKI-1 renal): > 100 µM
TGI (HCC-2998 colon): > 100 µM
TGI (HOP-62 NSCLC): > 100 µM
TGI (NCI-H226 lung): > 100 µM
TGI (PC-3 prostate): > 100 µM
TGI (SF-295 CNS): > 100 µM
TGI (SF-539 CNS): > 100 µM
TGI (SK-MEL-28 melanoma): > 100 µM
TGI (SK-OV-3 ovarian): > 100 µM
TGI (UACC-62 melanoma): > 100 µM
